Reference: the NIST ThermoML archive (doi:10.1016/j.jct.2018.06.021)
± gives the expanded uncertainty stated by the source.

Assays:
[1] = 101.33 kPa, Liquid; for viscosity: Falling or rolling sphere viscometry; for mass density: Vibrating tube method
[2] = wn = mass fraction of the nth substance listed; settings: 101.3 kPa, Liquid, Vibrating tube method

## OCCO [1,2-ethanediol]
[1]; 303.15 K
  viscosity: 13.66 ± 0.56 mPa·s
  mass density: 1106.3 ± 2 kg/m3
[1]; 308.15 K
  viscosity: 11.32 ± 0.46 mPa·s
[1]; 313.15 K
  viscosity: 9.474 ± 0.39 mPa·s
  mass density: 1099.2 ± 2 kg/m3
[1]; 318.15 K
  viscosity: 8.016 ± 0.33 mPa·s
[1]; 323.15 K
  viscosity: 6.849 ± 0.28 mPa·s
  mass density: 1092.1 ± 2 kg/m3
[1]; 328.15 K
  viscosity: 5.903 ± 0.24 mPa·s
  mass density: 1088.4 ± 2 kg/m3
[1]; 333.15 K
  viscosity: 5.124 ± 0.21 mPa·s
  mass density: 1084.8 ± 2 kg/m3
[1]; 338.15 K
  viscosity: 4.482 ± 0.18 mPa·s
  mass density: 1081.2 ± 2 kg/m3
[1]; 343.15 K
  viscosity: 3.946 ± 0.16 mPa·s
  mass density: 1077.5 ± 2 kg/m3
[1]; 348.15 K
  viscosity: 3.496 ± 0.14 mPa·s
  mass density: 1073.7 ± 2 kg/m3
[1]; 353.15 K
  viscosity: 3.112 ± 0.13 mPa·s
  mass density: 1070 ± 2 kg/m3

## OCCO [1,2-ethanediol] + O
[2]; 293.25 K, w1 = 1
  mass density: 1113.6 ± 2 kg/m3
[2]; 293.45 K, w1 = 0.95
  mass density: 1109.3 ± 2 kg/m3
[2]; 303.15 K, w1 = 1
  mass density: 1106.5 ± 2 kg/m3
[2]; 303.45 K, w1 = 0.95
  mass density: 1102.4 ± 2 kg/m3
[2]; 313.15 K, w1 = 1
  mass density: 1099.2 ± 2 kg/m3
[2]; 323.25 K, w1 = 0.95
  mass density: 1088.3 ± 2 kg/m3
[2]; 323.25 K, w1 = 1
  mass density: 1091.9 ± 2 kg/m3
[2]; 333.25 K, w1 = 1
  mass density: 1084.6 ± 2 kg/m3
[2]; 333.35 K, w1 = 0.95
  mass density: 1081 ± 2 kg/m3

## O [water] + OCCO
[2]; 323.25 K, w2 = 0
  mass density: 988 ± 2 kg/m3
[2]; 333.35 K, w2 = 0
  mass density: 983.1 ± 2 kg/m3
